# Test: -log concentration required to induce 50% maximum lipogenic activity against Peroxisome proliferator activated receptor gamma
row,Structure (SMILES),EC50 [µM]
1,COc1ccc(C(=O)c2ccccc2NC(Cc2ccc(OCCN(C)c3nc4ccccc4o3)cc2)C(=O)O)cc1 (stereo unspecified),0.095
2,CN(CCOc1ccc(CC(Nc2ccncc2C(=O)c2ccccc2)C(=O)O)cc1)c1nc2ccccc2o1 (stereo unspecified),0.724
3,Cc1oc(-c2ccccc2)nc1CCOc1ccc(CC(Nc2ccccc2C(=O)c2cccc(CN(C)C)c2)C(=O)O)cc1 (stereo unspecified),1.18
4,CN(CCOc1ccc(CC(Nc2ccc(Cl)cc2C(=O)c2ccccc2)C(=O)O)cc1)c1nc2ccccc2o1 (stereo unspecified),0.178
5,CN(CCOc1ccc(CC(Nc2ccccc2C(=O)c2ccccc2C(F)(F)F)C(=O)O)cc1)c1nc2ccccc2o1 (stereo unspecified),0.071
6,CSc1nc(NC(Cc2ccc(OCCN(C)c3nc4ccccc4o3)cc2)C(=O)O)c(C(=O)c2ccccc2)s1 (stereo unspecified),< 2.51
7,CN(CCOc1ccc(CC(Nc2sccc2C(=O)c2ccccc2)C(=O)O)cc1)c1nc2ccccc2o1 (stereo unspecified),0.095
8,Cc1oc(-c2ccccc2)nc1CCOc1ccc(CC(Nc2ccccc2C(=O)c2ccc(CO)cc2)C(=O)O)cc1 (stereo unspecified),0.174
9,CN(CCOc1ccc(CC(Nc2ccccc2C(=O)c2ccc(C(F)(F)F)cc2)C(=O)O)cc1)c1nc2ccccc2o1 (stereo unspecified),0.069
10,CN(CCOc1ccc(CC(Nc2ccccc2C(=O)c2cccc(OCc3ccccc3)c2)C(=O)O)cc1)c1nc2ccccc2o1 (stereo unspecified),0.891
11,Cc1oc(-c2ccccc2)nc1CCOc1ccc(CC(Nc2ccccc2C(=O)c2cccc(CO)c2)C(=O)O)cc1 (stereo unspecified),0.759
12,Cc1oc(-c2ccccc2)nc1CCOc1ccc(CC(Nc2ccccc2C(=O)c2ccc(CN(C)C)cc2)C(=O)O)cc1 (stereo unspecified),0.977
13,Cc1oc(-c2ccccc2)nc1CCOc1ccc(CC(Nc2ccccc2C(=O)c2cccc(N)c2)C(=O)O)cc1 (stereo unspecified),0.132
14,Cc1oc(-c2ccccc2)nc1CCOc1ccc(CC(Nc2ccccc2C(=O)c2cccc(C(=O)O)c2)C(=O)O)cc1 (stereo unspecified),1.58
15,CN(CCOc1ccc(CC(Nc2ccccc2C(=O)c2ccc(OCc3ccccc3)cc2)C(=O)O)cc1)c1nc2ccccc2o1 (stereo unspecified),0.676
16,Cc1oc(-c2ccccc2)nc1CCOc1ccc(CC(Nc2ccccc2C(=O)c2ccncc2)C(=O)O)cc1 (stereo unspecified),0.107
17,Cc1oc(-c2ccccc2)nc1CCOc1ccc(C[C@@H](Nc2ccccc2C(=O)C2CCCCC2)C(=O)O)cc1,0.372
18,CN(CCOc1ccc(CC(Nc2ccccc2C(=O)c2ccc(-c3ccccc3)cc2)C(=O)O)cc1)c1nc2ccccc2o1 (stereo unspecified),0.339
19,Cc1oc(-c2ccccc2)nc1CCOc1ccc(CC(Nc2ccccc2C(=O)N(C)C)C(=O)O)cc1 (stereo unspecified),> 1
20,COc1ccccc1C(=O)c1ccccc1NC(Cc1ccc(OCCN(C)c2nc3ccccc3o2)cc1)C(=O)O (stereo unspecified),0.501
21,CN(CCOc1ccc(CC(Nc2ccccc2C(=O)c2ccsc2)C(=O)O)cc1)c1nc2ccccc2o1 (stereo unspecified),0.072
22,CN(CCOc1ccc(CC(Nc2ccccc2C(=O)c2cccs2)C(=O)O)cc1)c1nc2ccccc2o1 (stereo unspecified),0.078
23,CNC(=O)c1ccccc1NC(Cc1ccc(OCCc2nc(-c3ccccc3)oc2C)cc1)C(=O)O (stereo unspecified),0.363
24,Cc1oc(-c2ccccc2)nc1CCOc1ccc(CC(Nc2ccccc2C(=O)O)C(=O)O)cc1 (stereo unspecified),> 10
25,COc1cccc(C(=O)c2ccccc2NC(Cc2ccc(OCCN(C)c3nc4ccccc4o3)cc2)C(=O)O)c1 (stereo unspecified),0.155

# The next lines start with the values.
row,EC50 [µM],Structure (SMILES)
1,0.013,CCCOC(=O)c1ccccc1NC(Cc1ccc(OCCc2nc(-c3ccccc3)oc2C)cc1)C(=O)O (stereo unspecified)
2,0.0044,CN(CCOc1ccc(CC(Nc2ccccc2C(=O)c2ccccc2)C(=O)O)cc1)c1nc2ccccc2o1 (stereo unspecified)
3,0.063,Cc1ccc(NC(Cc2ccc(OCCN(C)c3nc4ccccc4o3)cc2)C(=O)O)c(C(=O)c2ccccc2)c1 (stereo unspecified)
4,0.012,Cc1ccc(C(=O)c2ccccc2NC(Cc2ccc(OCCN(C)c3nc4ccccc4o3)cc2)C(=O)O)cc1 (stereo unspecified)
5,0.0027,CN(CCOc1ccc(CC(Nc2ccccc2C(=O)c2cccc3ccccc23)C(=O)O)cc1)c1nc2ccccc2o1 (stereo unspecified)
6,0.0014,CN(CCOc1ccc(CC(Nc2cscc2C(=O)c2ccccc2)C(=O)O)cc1)c1nc2ccccc2o1 (stereo unspecified)
7,0.0085,CN(CCOc1ccc(C[C@H](Nc2ccccc2C(=O)C2CCCCC2)C(=O)O)cc1)c1nc2ccccc2o1
8,0.0032,Cc1oc(-c2ccccc2)nc1CCOc1ccc(CC(Nc2ccccc2C(=O)OC(C)C)C(=O)O)cc1 (stereo unspecified)
9,0.024,CN(CCOc1ccc(CC(Nc2ccccc2C(=O)C2CCCC2)C(=O)O)cc1)c1nc2ccccc2o1 (stereo unspecified)
10,0.000427,CCOC(=O)c1ccccc1NC(Cc1ccc(OCCc2nc(-c3ccccc3)oc2C)cc1)C(=O)O (stereo unspecified)
11,0.0069,Cc1ccccc1C(=O)c1ccccc1NC(Cc1ccc(OCCN(C)c2nc3ccccc3o2)cc1)C(=O)O (stereo unspecified)
12,0.014,Cc1cccc(C(=O)c2ccccc2NC(Cc2ccc(OCCN(C)c3nc4ccccc4o3)cc2)C(=O)O)c1 (stereo unspecified)
13,0.017,Cc1oc(-c2ccccc2)nc1CCOc1ccc(CC(Nc2ccccc2C(=O)c2cccnc2)C(=O)O)cc1 (stereo unspecified)
14,0.066,CN(CCOc1ccc(CC(Nc2ccccc2C(=O)C2CCCCCC2)C(=O)O)cc1)c1nc2ccccc2o1 (stereo unspecified)
15,0.0035,CN(CCOc1ccc(CC(Nc2ccsc2C(=O)c2ccccc2)C(=O)O)cc1)c1nc2ccccc2o1 (stereo unspecified)
16,0.027,CN(CCOc1ccc(CC(Nc2ccccc2C(=O)c2cccc(C(F)(F)F)c2)C(=O)O)cc1)c1nc2ccccc2o1 (stereo unspecified)

# From BindingDB's records for doi:10.1021/jm980414r (Glaxo Wellcome Research and Development, 1998)
